Test: recombinant UMI read abundance after kanamycin selection (control-corrected) (log10(CPM+1)); higher = more efficient recombination; extreme values may be limits of the assay; sequences stand for … in AGTGCAGAGAAAATCGGCCAGTTTTCTCTGCCTGCAGTCCGCATGCCGTGGGACCCCTTGGGTTCTAACCTGTTGCCTAGATTTATGCAGCGGACTGCCTTTCTCCCAAAGTGATAAACCGG…AGGTTGGTTTCACT; site = the 11-nt donor
In short: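 Counts of recombinant UMIs were reported as log10(CPM+1). Before that, they were converted to CPM, averaged over replicates and scaled using control-derived factors. They came from PCR across the donor–target junction after Escherichia coli carrying the pair library and target plasmid was plated on IPTG (0.07 mM) plus kanamycin, or unselected, in two replicates each.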
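Also: IS621 bridge recombinase in Escherichia coli cells against a fixed T5 target plasmid.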

Question: With “TAGACGGCATGGACCGGTTTTCCCGGTAATCCGTATTTGGC (site TAGACGGCTGC)” as the sequence, how does the “recombinant UMI read abundance (log10)” value read?
Answer: 2.75

Question: With “TAGACTCCATGGACCGGTTTTCCCGGTAATCCGTATTTGCA (site TAGACTCCTTG)” as the sequence, how does the “recombinant UMI read abundance (log10)” value read?
Answer: 1.54

Question: For “TAGCAATCATGGACCGGTTTTCCCGGTAATCCGTATTTGCG (site TAGAAATCTCG)”, which “recombinant UMI read abundance (log10)” value is on record?
Answer: 0

Question: For “TAGCAATCATGGACCGGTTTTCCCGGTAATCCGTATTTGCG (site TAGCAATCTCG)”, which “recombinant UMI read abundance (log10)” value is on record?
Answer: 1.45

Question: With “TAGCAATCATGGACCGGTTTTCCCGGTAATCCGTATTTGCG (site TAGGAATCTCG)” as the sequence, how does the “recombinant UMI read abundance (log10)” value read?
Answer: 0

Question: Which “recombinant UMI read abundance (log10)” value does the source give for “TAGCAATCATGGACCGGTTTTCCCGGTAATCCGTATTTGCG (site TAGTAATCTCG)” here?
Answer: 0.646

Question: With “TAGCAGTCATGGACCGGTTTTCCCGGTAATCCGTATTTGTC (site TAGCAGTCTGA)” as the sequence, how does the “recombinant UMI read abundance (log10)” value read?
Answer: 2.39

Question: With “TAGCCAGCATGGACCGGTTTTCCCGGTAATCCGTATTTGAA (site TAGCAAGCTTT)” as the sequence, how does the “recombinant UMI read abundance (log10)” value read?
Answer: 0.0207

Question: For “TAGCCAGCATGGACCGGTTTTCCCGGTAATCCGTATTTGAA (site TAGCCAGCTTT)”, which “recombinant UMI read abundance (log10)” value is on record?
Answer: 0.924

Question: Which “recombinant UMI read abundance (log10)” value does the source give for “TAGCCAGCATGGACCGGTTTTCCCGGTAATCCGTATTTGAA (site TAGCGAGCTTT)” here?
Answer: 0.0055

Question: Which “recombinant UMI read abundance (log10)” value does the source give for “TAGCCAGCATGGACCGGTTTTCCCGGTAATCCGTATTTGAA (site TAGCTAGCTTT)” here?
Answer: 0.00915

Question: Which “recombinant UMI read abundance (log10)” value does the source give for “TAGCCTCCATGGACCGGTTTTCCCGGTAATCCGTATTTGGT (site TAGCCTACTAC)” here?
Answer: 0.0161

Question: Which “recombinant UMI read abundance (log10)” value does the source give for “TAGCCTCCATGGACCGGTTTTCCCGGTAATCCGTATTTGGT (site TAGCCTCCTAC)” here?
Answer: 0.00993

Question: Which “recombinant UMI read abundance (log10)” value does the source give for “TAGCCTCCATGGACCGGTTTTCCCGGTAATCCGTATTTGGT (site TAGCCTGCTAC)” here?
Answer: 0.0298

Question: Which “recombinant UMI read abundance (log10)” value does the source give for “TAGCCTCCATGGACCGGTTTTCCCGGTAATCCGTATTTGGT (site TAGCCTTCTAC)” here?
Answer: 0

Question: With “TAGCCTGCATGGACCGGTTTTCCCGGTAATCCGTATTTGGT (site TAGCCTACTAC)” as the sequence, how does the “recombinant UMI read abundance (log10)” value read?
Answer: 0.00931

Question: With “TAGCCTGCATGGACCGGTTTTCCCGGTAATCCGTATTTGGT (site TAGCCTCCTAC)” as the sequence, how does the “recombinant UMI read abundance (log10)” value read?
Answer: 0.00394

Question: With “TAGCCTGCATGGACCGGTTTTCCCGGTAATCCGTATTTGGT (site TAGCCTGCTAC)” as the sequence, how does the “recombinant UMI read abundance (log10)” value read?
Answer: 0.0393

Question: Which “recombinant UMI read abundance (log10)” value does the source give for “TAGCCTGCATGGACCGGTTTTCCCGGTAATCCGTATTTGGT (site TAGCCTTCTAC)” here?
Answer: 0.00419

Question: For “TAGCCTTCATGGACCGGTTTTCCCGGTAATCCGTATTTGAT (site TAGCCTTCTAA)”, which “recombinant UMI read abundance (log10)” value is on record?
Answer: 0.00922

Question: For “TAGCCTTCATGGACCGGTTTTCCCGGTAATCCGTATTTGAT (site TAGCCTTCTAC)”, which “recombinant UMI read abundance (log10)” value is on record?
Answer: 0.0113

Question: For “TAGCCTTCATGGACCGGTTTTCCCGGTAATCCGTATTTGAT (site TAGCCTTCTAG)”, which “recombinant UMI read abundance (log10)” value is on record?
Answer: 0

Question: With “TAGCCTTCATGGACCGGTTTTCCCGGTAATCCGTATTTGAT (site TAGCCTTCTAT)” as the sequence, how does the “recombinant UMI read abundance (log10)” value read?
Answer: 0

Question: With “TAGCCTTCATGGACCGGTTTTCCCGGTAATCCGTATTTGCT (site TAGCCTTCTAA)” as the sequence, how does the “recombinant UMI read abundance (log10)” value read?
Answer: 0.0333

Question: With “TAGCCTTCATGGACCGGTTTTCCCGGTAATCCGTATTTGCT (site TAGCCTTCTAC)” as the sequence, how does the “recombinant UMI read abundance (log10)” value read?
Answer: 0.00853

Question: Which “recombinant UMI read abundance (log10)” value does the source give for “TAGCCTTCATGGACCGGTTTTCCCGGTAATCCGTATTTGCT (site TAGCCTTCTAG)” here?
Answer: 0

Question: For “TAGCCTTCATGGACCGGTTTTCCCGGTAATCCGTATTTGCT (site TAGCCTTCTAT)”, which “recombinant UMI read abundance (log10)” value is on record?
Answer: 0

Question: Which “recombinant UMI read abundance (log10)” value does the source give for “TAGCCTTCATGGACCGGTTTTCCCGGTAATCCGTATTTGGT (site AAGCCTTCTAC)” here?
Answer: 0.00534

Question: With “TAGCCTTCATGGACCGGTTTTCCCGGTAATCCGTATTTGGT (site CAGCCTTCTAC)” as the sequence, how does the “recombinant UMI read abundance (log10)” value read?
Answer: 0.00723

Question: With “TAGCCTTCATGGACCGGTTTTCCCGGTAATCCGTATTTGGT (site GAGCCTTCTAC)” as the sequence, how does the “recombinant UMI read abundance (log10)” value read?
Answer: 0.0148

Question: With “TAGCCTTCATGGACCGGTTTTCCCGGTAATCCGTATTTGGT (site TAACCTTCTAC)” as the sequence, how does the “recombinant UMI read abundance (log10)” value read?
Answer: 0

Question: For “TAGCCTTCATGGACCGGTTTTCCCGGTAATCCGTATTTGGT (site TACCCTTCTAC)”, which “recombinant UMI read abundance (log10)” value is on record?
Answer: 0.00592

Question: For “TAGCCTTCATGGACCGGTTTTCCCGGTAATCCGTATTTGGT (site TAGACTTCTAC)”, which “recombinant UMI read abundance (log10)” value is on record?
Answer: 0

Question: With “TAGCCTTCATGGACCGGTTTTCCCGGTAATCCGTATTTGGT (site TAGCATTCTAC)” as the sequence, how does the “recombinant UMI read abundance (log10)” value read?
Answer: 0.0053

Question: With “TAGCCTTCATGGACCGGTTTTCCCGGTAATCCGTATTTGGT (site TAGCCATCTAC)” as the sequence, how does the “recombinant UMI read abundance (log10)” value read?
Answer: 0.00583

Question: For “TAGCCTTCATGGACCGGTTTTCCCGGTAATCCGTATTTGGT (site TAGCCCTCTAC)”, which “recombinant UMI read abundance (log10)” value is on record?
Answer: 0.00791

Question: Which “recombinant UMI read abundance (log10)” value does the source give for “TAGCCTTCATGGACCGGTTTTCCCGGTAATCCGTATTTGGT (site TAGCCGTCTAC)” here?
Answer: 0.0151

Question: Which “recombinant UMI read abundance (log10)” value does the source give for “TAGCCTTCATGGACCGGTTTTCCCGGTAATCCGTATTTGGT (site TAGCCTACTAC)” here?
Answer: 0.0102

Question: With “TAGCCTTCATGGACCGGTTTTCCCGGTAATCCGTATTTGGT (site TAGCCTCCTAC)” as the sequence, how does the “recombinant UMI read abundance (log10)” value read?
Answer: 0.00585

Question: With “TAGCCTTCATGGACCGGTTTTCCCGGTAATCCGTATTTGGT (site TAGCCTGCTAC)” as the sequence, how does the “recombinant UMI read abundance (log10)” value read?
Answer: 0.0178

Question: With “TAGCCTTCATGGACCGGTTTTCCCGGTAATCCGTATTTGGT (site TAGCCTTCTAA)” as the sequence, how does the “recombinant UMI read abundance (log10)” value read?
Answer: 0.0101

Question: Which “recombinant UMI read abundance (log10)” value does the source give for “TAGCCTTCATGGACCGGTTTTCCCGGTAATCCGTATTTGGT (site TAGCCTTCTAC)” here?
Answer: 0.00564

Question: For “TAGCCTTCATGGACCGGTTTTCCCGGTAATCCGTATTTGGT (site TAGCCTTCTAG)”, which “recombinant UMI read abundance (log10)” value is on record?
Answer: 0

Question: For “TAGCCTTCATGGACCGGTTTTCCCGGTAATCCGTATTTGGT (site TAGCCTTCTAT)”, which “recombinant UMI read abundance (log10)” value is on record?
Answer: 0.017

Question: For “TAGCCTTCATGGACCGGTTTTCCCGGTAATCCGTATTTGGT (site TAGCCTTCTCC)”, which “recombinant UMI read abundance (log10)” value is on record?
Answer: 0.0356

Question: For “TAGCCTTCATGGACCGGTTTTCCCGGTAATCCGTATTTGGT (site TAGCCTTCTGC)”, which “recombinant UMI read abundance (log10)” value is on record?
Answer: 0

Question: For “TAGCCTTCATGGACCGGTTTTCCCGGTAATCCGTATTTGGT (site TAGCCTTCTTC)”, which “recombinant UMI read abundance (log10)” value is on record?
Answer: 0.0121

Question: Which “recombinant UMI read abundance (log10)” value does the source give for “TAGCCTTCATGGACCGGTTTTCCCGGTAATCCGTATTTGGT (site TAGCGTTCTAC)” here?
Answer: 0

Question: Which “recombinant UMI read abundance (log10)” value does the source give for “TAGCCTTCATGGACCGGTTTTCCCGGTAATCCGTATTTGGT (site TAGCTTTCTAC)” here?
Answer: 0

Question: For “TAGCCTTCATGGACCGGTTTTCCCGGTAATCCGTATTTGGT (site TAGGCTTCTAC)”, which “recombinant UMI read abundance (log10)” value is on record?
Answer: 0.0025

Question: With “TAGCCTTCATGGACCGGTTTTCCCGGTAATCCGTATTTGGT (site TAGTCTTCTAC)” as the sequence, how does the “recombinant UMI read abundance (log10)” value read?
Answer: 0

Question: For “TAGCCTTCATGGACCGGTTTTCCCGGTAATCCGTATTTGGT (site TATCCTTCTAC)”, which “recombinant UMI read abundance (log10)” value is on record?
Answer: 0.379

Question: Which “recombinant UMI read abundance (log10)” value does the source give for “TAGCCTTCATGGACCGGTTTTCCCGGTAATCCGTATTTGGT (site TCGCCTTCTAC)” here?
Answer: 0.0137

Question: Which “recombinant UMI read abundance (log10)” value does the source give for “TAGCCTTCATGGACCGGTTTTCCCGGTAATCCGTATTTGGT (site TGGCCTTCTAC)” here?
Answer: 0

Question: With “TAGCCTTCATGGACCGGTTTTCCCGGTAATCCGTATTTGGT (site TTGCCTTCTAC)” as the sequence, how does the “recombinant UMI read abundance (log10)” value read?
Answer: 0.0116

Question: With “TAGCGAGCATGGACCGGTTTTCCCGGTAATCCGTATTTGTC (site TAGCGAGCTGA)” as the sequence, how does the “recombinant UMI read abundance (log10)” value read?
Answer: 2.41

Question: With “TAGCGCTCATGGACCGGTTTTCCCGGTAATCCGTATTTGCA (site TAGCGCTCTTG)” as the sequence, how does the “recombinant UMI read abundance (log10)” value read?
Answer: 2.33

From the supplement of paper PMC11208160
